The text below walks through data of patent US11572373B2, “Maytansinoid-based drug delivery systems” (LADRX CORPORATION, priority 2017, dated 2023).

For the series, the target named is T1, albumin (Homo sapiens, UniProt P02768).
T1 construct: tissue Zen-Bio; host or cells: pooled human whole blood (K2EDTA, 36 donors) and plasma prepared from it
Kind of series: in vitro. As to conditions: 37° C., 12.0 μM, read-out: % bound (converted). In kind it is in vitro ADME. As for the experimental part: To study the binding kinetics of the albumin-binding maytansinoids in pooled human plasma and pooled human whole blood, the compounds were incubated together with pooled human plasma at 37° C. and samples were taken at specified time points. Remaining albumin-binding maytansinoids were quantitated by HPLC.
To study the binding kinetics in human whole blood, the blood (K2EDTA, 36 donors, Zen-Bio; 900 μL) was preincubated at 37° C. for 30 min in a heating block. To study the binding kinetics in pooled human plasma, the pooled whole blood was centrifuged (10 min, 1811 g), the supernatant plasma was collected and then preincubated at 37° C. for 30 min.
The albumin-binding maytansinoid was added to the preincubated whole blood/plasma sample as a 10-fold dilution in PBS of a 1.2 mM stock solution in 2.5% propylene glycol in 10 mM sodium phosphate buffer and 1.48 mM citrate (100 μL) to produce a 12.0 μM solution of the respective albumin-binding maytansinoid. Samples (190 μL) were taken after 15 s, 2 min, 4 min, 8 min and 15 min. The samples were directly added to 760 μL MeCN containing maytansine (5 μg/mL) as an internal standard and vortexed for 1 min. After centrifugation (1 min at 12,044 g) the supernatant (850 μL) was concentrated under high vacuum. The residue was taken up in DMSO/water (1:1 v/v; 95 μL) and then analyzed by RP-HPLC. Percentage of binding was determined by comparison of the area under the curve (AUC) at 220 nm of the albumin-binding maytansinoid relative to a control sample (100% value) in PBS buffer. All experiments were performed in triplicates.
HPLC method: Phenomenex Kinetex Polar C18, 2.6 μm, 100 Å, 150×4.6 mm; eluent A (95:5 5 mM ammonium acetate: MeCN) and eluent B (5:95 5 mM ammonium acetate: MeCN) eluting with a gradient of eluent B (30% 0-0.5 min, 30-95% 0.5-9.0 min, 95% 11.0 min, 95-30% 11.0-14.5 min, 30% 15.0 min, flow rate=1.0 mL/min). Column oven temperature ambient temperature; autosampler temperature 4° C.; 50 μL of injection volume.

Read-outs that look alike come from different tables or passages of the source.

T1 sequence (P02768 25-609): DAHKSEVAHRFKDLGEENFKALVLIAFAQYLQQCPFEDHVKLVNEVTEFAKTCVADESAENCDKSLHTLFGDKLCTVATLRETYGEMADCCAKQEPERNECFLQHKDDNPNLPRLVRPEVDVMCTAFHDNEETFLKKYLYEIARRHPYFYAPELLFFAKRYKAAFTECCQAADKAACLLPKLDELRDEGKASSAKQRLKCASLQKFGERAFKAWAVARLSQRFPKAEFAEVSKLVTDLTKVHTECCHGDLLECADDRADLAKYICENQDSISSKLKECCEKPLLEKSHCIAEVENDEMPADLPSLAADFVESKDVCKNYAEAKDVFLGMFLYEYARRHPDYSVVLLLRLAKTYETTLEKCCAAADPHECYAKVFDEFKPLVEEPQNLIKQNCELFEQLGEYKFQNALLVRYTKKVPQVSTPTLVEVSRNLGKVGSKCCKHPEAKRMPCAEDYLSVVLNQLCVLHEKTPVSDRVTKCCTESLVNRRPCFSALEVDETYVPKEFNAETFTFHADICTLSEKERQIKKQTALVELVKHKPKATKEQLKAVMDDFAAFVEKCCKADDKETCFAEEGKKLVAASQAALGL

For the compound `COc1cc2cc(c1Cl)N(C)C(=O)C[C@H](OC(=O)COc1cccc(/C(C)=N/NC(=O)c3ccc(NC(=O)CCCCCN4C(=O)C=CC4=O)cc3S(=O)(=O)O)c1)[C@]1(C)O[C@H]1[C@H](C)[C@@H]1C[C@@](O)(NC(=O)O1)[C@H](OC)/C=C/C=C(\C)C2` [Compound 31], the fraction unbound (blood, pooled human whole blood, 15 s) is 0.008; the fraction unbound (blood, pooled human whole blood, 8 min) was 0.007; the fraction unbound (plasma, pooled human plasma, 15 s) was 0.08; the fraction unbound (plasma, pooled human plasma, 8 min) was 0.014.
